Like-named read-outs stand apart in the source and are kept apart here.
Assays:
A2780 = assay: CellTiter-Glo cytotoxicity assay, single agents (Stage 1); format: cell-based; conditions: CTG assay 72 h
Procedure: (§1) A2780, SK-OV-3, OVCAR-3, NCI-H460, NCI-H1975, NCI-H2122, 5637 and HT1376 were cultured in RPMI Medium 1640 (Invitrogen-22400105) supplemented with 10% fetal bovine serum (FBS; Invitrogen-10099141). All the cell lines were maintained in a humidified incubator at 37° C. with 5% CO2. Cell culture media and supplements were purchased from Invitrogen, and tissue culture flasks were purchased from Corning, 96-well plates and 384-well plates were purchased from Greiner. CellTiter-Glo Luminescent Cell Viability Assay kits were purchased from Promega (Promega-G7573), cells counter Vi-Cell was purchased from Beckman, detection instrument Envision was purchased from PerkinElmer.
(§2) Paclitaxcel (used as a reference) and cisplatin were purchased from SELLECK, and they were of highest purity available. All compounds attained solubility in DMSO and when diluted into culture media. DMSO, compounds solutions and culture media were warmed to 37° C. for the solution preparation and dilutions.
(§3) Eight cell lines were allowed to adhere to 96-well plates overnight (100 μL/well), for drug treatments with 3.16 fold dilution, 9 dose points, triplicates or vehicle control, compound stock solutions were prepared in DMSO and added to the wells to give the indicated final drug concentrations. Final DMSO concentration was 0.5%. Cellular ATP concentrations were assessed by using the CellTiter-Glo Cell Viability Assay as per the manufacturer's instructions 72 h after drug addition.
(§4) In Stage 1 the IC50 (using 5 or more concentrations) of each individual compound (cisplatin, gemcitabine and NUC-1031) in the relevant cell lines was determined.

OVCAR-3 = assay: as above; format: cell-based; conditions: CTG assay 72 h
Procedure: as §1, §2, §3, §4

NCI-H1975 = assay: as above; format: cell-based; conditions: CTG assay 72 h
Procedure: as §1, §2, §3, §4

5637 = assay: as above; format: cell-based; conditions: CTG assay 72 h
Procedure: as §1, §2, §3, §4

SK-OV3 = assay: as above; format: cell-based
Procedure: as §1, §2, §3, §4

NCI-H460 = assay: as above; format: cell-based; conditions: CTG assay 72 h
Procedure: as §1, §2, §3, §4

HT1376 = assay: as above; format: cell-based
Procedure: as §1, §2, §3, §4

HT1376 (Bladder) = assay: CellTiter-Glo combination analysis (Stage 2); format: cell-based; conditions: cisplatin alone dose-effect curve
Procedure: A2780, SK-OV-3, OVCAR-3, NCI-H460, NCI-H1975, NCI-H2122, 5637 and HT1376 were cultured in RPMI Medium 1640 (Invitrogen-22400105) supplemented with 10% fetal bovine serum (FBS; Invitrogen-10099141). All the cell lines were maintained in a humidified incubator at 37° C. with 5% CO2. Cell culture media and supplements were purchased from Invitrogen, and tissue culture flasks were purchased from Corning, 96-well plates and 384-well plates were purchased from Greiner. CellTiter-Glo Luminescent Cell Viability Assay kits were purchased from Promega (Promega-G7573), cells counter Vi-Cell was purchased from Beckman, detection instrument Envision was purchased from PerkinElmer. 8 cell lines were allowed to adhere to 384 well plates overnight (60 μL/well), for combination study, four combinations of two compounds will be investigated twice, keeping one compound at a fixed concentration while increasing the concentration of the second compound (10 fold dilution, 5 dose points), compound stock solutions were prepared in DMSO and added to the wells to give the indicated final drug concentrations by D300e digital dispenser. […] Cellular ATP concentrations were assessed by using the CellTiter-Glo Cell Viability Assay as per the manufacturer's instructions 72 hours after drug addition. Stage 2 determined the interaction of selected combinations of compounds on cancer cell growth. […]

SKOV3 cells = assay: Sulforhodamine B (SRB) assay, single agent; format: cell-based; conditions: SRB assay on day 4, read-out: IC50
Procedure: SKOV3 cells were purchased from American Type Culture Collection (ATCC). They were cultured at 37° C. and 5% CO2 in Gibco™ RMPI Medium 1640+GlutaMAX™-I (Life Technologies; 61870-010) with 10% Gibco™ FBS (Life Technologies; 10270-106) and 1% Gibco™ Penicillin-Streptomycin (Life Technologies; Ser. No. 15/140,122), known as complete medium, in a cell culture flask. Cisplatin was purchased from TEVA UK Limited (PL 00289/1146). Fluvastatin and Sulforaphane were both purchased from Merck Millipore Corporation (Catalogue numbers 344096 and 574215 respectively). (S)-NUC-1031 was provided by NuCana® Ltd.
SKOV3 cells were plated at 250 cells in 200 μl per well in the middle 60 wells of Costar® 3596 96-well plates, with the outer 36 wells filled with 200 μl PBS each. The cells were allowed to grow in complete medium for 48 hours before different drug compounds were added in. For single agent, cisplatin, (S)-NUC-1031, fluvastatin and sulforaphane in complete medium at 10 different concentrations were added into the middle 60 wells (Day 0). Each concentration was loaded in sextuplicate. Cells were exposed to the compounds for 24 hours and the compounds were replaced by pure complete medium. The experiment with fluvastatin was repeated with 4-day exposure instead of 24 hours. The plates were fixed with 50 μl 25% TCA solution at 4° C. for 60 minutes on day 4 after the drug compounds were added for Sulforhodamine B assay (see below).
After adding the TCA solution, the plates were washed under running tap water 10 times and were allowed to dry in the oven at 50° C. The cells were then stained with 50 μl SRB dye, and the dye was washed off with 1% glacial acetic acid for 4 times 30 minutes after SRB addition. The plates were then dried in the oven. SRB dye was allowed to dissolve in 150 μl 10 mM Tris buffer solution for 60 minutes on a rocker. The plates were read on Biohit BP800 Microplate Reader (Biohit Healthcare) and the absorbance was measured at 540 nm. […]

biliary tract cancer = conditions: cited from earlier work
[1] = absolute IC50, read-out: Ab IC50
[2] = CTG assay 72 h, absolute IC50, read-out: Ab IC50
[3] = CTG assay 72 h, relative IC50, read-out: IC50
[4] = Homo sapiens, absolute IC50, read-out: Ab IC50
[5] = Homo sapiens, relative IC50, read-out: IC50

N.N.[Cl][Pt][Cl] [Cisplatin, cisplatin]
Max Inhibition_% (A2780): 99.05% | IC50 (A2780; [1]): 11000 nM | IC50 (A2780; relative IC50, read-out: IC50): 10100 nM | Max Inhibition_% (OVCAR-3): 79.59% | IC50 (OVCAR-3; [1]): 28300 nM | IC50 (OVCAR-3; relative IC50, read-out: IC50): 23500 nM | Max Inhibition_% (NCI-H1975): 103.60% | IC50 (NCI-H1975; [1]): 69600 nM | IC50 (NCI-H1975; relative IC50, read-out: IC50): 69200 nM | Max Inhibition_% 5637: 101.74% | IC50 5637; [1]: 13700 nM | IC50 (5637; relative IC50, read-out: IC50): 13200 nM | Max Inhibition_% (SK-OV3; CTG assay 72 h): 86.42% | IC50 (SK-OV3; [2]): 45600 nM | IC50 (SK-OV3; [3]): 33700 nM | Max Inhibition_% (NCI-H460): 97.56% | IC50 (NCI-H460; [1]): 2590 nM | IC50 (NCI-H460; relative IC50, read-out: IC50): 2570 nM | Max Inhibition_% (HT1376; CTG assay 72 h): 71.90% | IC50 (HT1376; [2]): 20500 nM | IC50 (HT1376; [3]): 18400 nM | IC50 (HT1376 (Bladder); listed as Cisplatin 2, read-out: IC50 (curve shift method)): 58000 nM | IC50 (HT1376 (Bladder); read-out: IC50 (curve shift method)): 64400 nM | IC50 (SKOV3 cells; 24 hours exposure): 2440 nM

Nc1ccn([C@@H]2O[C@H](CO)[C@@H](O)C2(F)F)c(=O)n1 [Gemcitabine]
Max Inhibition_% (A2780): 81.15% | IC50 (A2780; [4]): 10 nM | IC50 (A2780; [5]): 10 nM | Max Inhibition_% (OVCAR-3): 6.95% | IC50 (OVCAR-3; [4]): > 1980 nM | IC50 (OVCAR-3; [5]): 20 nM | Max Inhibition_% (NCI-H1975): 62.12% | IC50 (NCI-H1975; [4]): 80 nM | IC50 (NCI-H1975; [5]): 20 nM | Max Inhibition_% 5637: 84.49% | IC50 5637; [1]: 10 nM | IC50 (5637; relative IC50, read-out: IC50): 10 nM | Max Inhibition_% (SK-OV3; CTG assay 72 h): 65.74% | IC50 (SK-OV3; Homo sapiens, SK-OV-3, CTG assay 72 h, absolute IC50, read-out: Ab IC50): 20 nM | IC50 (SK-OV3; Homo sapiens, SK-OV-3, CTG assay 72 h, relative IC50, read-out: IC50): 20 nM | Max Inhibition_% (NCI-H460): 96.28% | IC50 (NCI-H460; [4]): 10 nM | IC50 (NCI-H460; [5]): 10 nM | Max Inhibition_% (HT1376; CTG assay 72 h): 9.60% | IC50 (HT1376; Homo sapiens, HT-1376, CTG assay 72 h, absolute IC50, read-out: Ab IC50): > 1980 nM | IC50 (HT1376; Homo sapiens, HT-1376, CTG assay 72 h, relative IC50, read-out: IC50): > 1980 nM | overall survival (median) (biliary tract cancer; ABC-02, 410 patients with BTC): 8.1 months | progression-free survival (median) (biliary tract cancer; ABC-02, patients with BTC): 5 months

C[S+]([O-])CCCCN=C=S (stereo not drawn) [sulforaphane, Sulforaphane]
IC50 (SKOV3 cells; Homo sapiens, SK-OV-3, 24 hours exposure): 7000 nM

— patent US20190022117A1, “COMBINATION THERAPY” (NuCana plc, priority 2015, published 2019)
